# Laboratory results taken from US20060052326A1, “Werner's syndrome helicase as a target for anti -HIV/AIDS therapy” (priority 2004, published 2006).
# B1: TatK28A/K50A (protein)
# chain: MEPVDPRLEPWKHPGSQPKTACTNCYCAKCCFHCQVCFITKALGISYGRAKRRQRRRAHQNSQTHQASLSKQPTSQPRGDPTGPKE
# Key:
# Assay type in all cases: cell-based
# [1] = tested on: HIV-1 LTR; test: HIV-1 LTR-luciferase / tk-renilla normalized reporter assay in HeLa cells; conditions: for Tat-activated HIV-1 LTR luciferase activity with or without WRNK577M: highest concentration of WRNK577M versus Tat alone
# Experimental: (§1) Therefore, we co-transfected immortalized WRN^-I- fibroblasts with a tk-renilla luciferase reporter plasmid (which produces red luminescence as a result of renilla luciferase expression driven by the Herpes Simplex Virus thymidine kinase (tk) minimal gene promoter)(0.5 μg) and an HIV-1 LTR-luciferase reporter construct (which produces green luminescence as a result of firefly luciferase expression driven by the HIV-1 LTR) (0.5 μg), and increasing amounts of RSV-HIV-1 Tat or RSV-HIV-1 TatK28A/K50A (0.15, 0.25, 0.5 μg) in the absence or presence of the trans-dominant negative CMV-WRNK577M mutant (0.5, 1.0 μg). The CMV-WRNK577M trans-dominant-negative helicase-defective mutant was co-expressed in certain experiments to inhibit Tat-activated HIV-1 LTR transcription and endogenous WRN functions in HeLa cells (Bai Y et al., Hum. Genet. 113:337-347). Samples were normalized to yield approximately equivalent renilla-luciferase expression to control for transfection efficiencies and any differences in overall transcription levels between WRN^-I- fibroblasts and HeLa cells. Normalized extracts were then compared to determine basal-level and Tat-activated HIV-1 LTR-luciferase transcription.
# [2] = tested on: H9HIV-1IIIB lymphocytes; test: Immunofluorescence-microscopy of p24^Gag in transfected HIV-1-infected H9 lymphocytes; conditions: PHA/hIL-2 stimulated, Myc-epitope-tagged protein over-expression
# Experimental: Immunofluorescence-microscopy was next performed to directly assess whether over-expression of Myc-epitope-tagged WRN or the trans-dominant-negative WRNK577M mutant influence HIV-replication and production of p24^Gag in infected H9HIV-1IIIB lymphocytes. HIV-1-infected H9 lymphocytes were transfected with increasing amounts of CMV-WRN, CMV-WRNK577M, or CβF empty vector (0.12, 0.25 μg) and were stimulated with PHA and hIL-2 as described above. Immunofluorescence-microscopy was performed to determine the influence of WRN or WRNK577M over-expression upon production of HIV-1 p24^Gag and viral replication. Expression of Myc-epitope-tagged WRN and WRNK577M proteins in transfected H9 cells was detected using a rabbit anti-Myc polyclonal antibody (Moser M J et al., Nucleic Acids Res. 28:648-654). Production of intracellular HIV-1 p24^Gag capsid protein was detected using a monoclonal anti-HIV-1 p24^Gag antibody. DAPI-staining was performed to visualize nuclei.
# [3] = tested on: HIV-1 LTR; test: HIV-1 LTR-luciferase reporter assay in Jurkat E6.1 T-cells; conditions: Jurkat E6.1 lymphocytes
# Experimental: To determine the influence of the WRN helicase upon HIV-1 LTR transcriptional activation in CD4^+ lymphocytes, Jurkat E6.1 T-cells were co-transfected with HIV-1 LTR-luciferase (0.5 μg), RSV-HIV-1 Tat (0.5 μg), and increasing amounts of CMV-WRN or CMV-WRNK577M, which expresses a trans-dominant negative helicase-defective mutant (0.25, 0.5, 1.0 μg). Following transfection, the cells were lysed by repeated freeze-thawing and luciferase assays were performed, in duplicate, using equivalent amounts of total cellular proteins.
# [4] = tested on: HIV-1IIIB-infected H9 lymphocytes; test: Intracellular p24^Gag immunoblotting in transfected HIV-1IIIB-infected H9 lymphocytes; conditions: PHA (10 ng/ml) and hIL-2 (50 U/ml) stimulated, over-expression
# Experimental: The influence of over-expressing wild-type WRN, or trans-dominant-negative WRNK577M, proteins upon HIV-1 replication and the production of intracellular viral structural components was tested in HIV-infected H9 lymphocytes that were stimulated with PHA (10 ng/ml) and human IL-2 (50 U/ml) . HIV-1IIIB-infected H9 lymphocytes were transfected with increasing amounts of CMV-WRN, CMV-WRNK577M, or CMV-green fluorescent protein (GFP) negative control (1.0, 3.0 μg) and then stimulated with PHA (10 ng/ml) and hIL-2 (50 U/ml) to induce HIV-1 replication. The HIV-1 p24^Gag major capsid and cellular actin proteins were detected by immuno-blotting using appropriate primary antibodies. Protein expression was quantified using a densitometer and is represented graphically below immunoblotting results shown in FIG. 7A.
# [5] = tested on: HIV-1 LTR^ΔκB; test: HIV-1 LTR^ΔκB-luciferase mutant reporter assay in co-transfected HeLa cells; conditions: for transcription from the HIV-1 LTR^ΔκB-luciferase construct (in words): absence of Tat
# Experimental: To determine whether the TAR-RNA stem-loop secondary structure is sufficient to support WRN-mediated LTR trans-activation, HeLa cells were co-transfected with an HIV-1 LTR^ΔκB luciferase mutant reporter construct, lacking upstream NF-κB-responsive enhancer sequences (transcription from this construct is principally regulated at the level of elongation by TAR-RNA), RSV-HIV-1 Tat, or increasing amounts of CMV-WRN or CMV-WRNK577M (0.25, 0.5, 1.0 μg). Luciferase assays were performed as described using equivalent amounts of total cellular proteins.
# The next experiment was undertaken to determine whether interactions with the Tat protein influence WRN's ability to trans-activate the HIV-1 LTR. […] All experiments were performed in duplicate or triplicate and error bars representative of standard deviations are shown in FIG. 4C.
# [6] = tested on: HIV-1 LTR; test: HIV-1 LTR-luciferase reporter assay in co-transfected HeLa cells; conditions: for effect on basal HIV-1 LTR transcriptional activity (in words): absence of Tat
# Experimental: To determine whether the WRN or BLM helicases influence HIV-1 transcriptional activity and viral replication, HeLa cells were co-transfected with an HIV-1 LTR-luciferase reporter plasmid (0.5 μg), RSV-HIV-1 Tat (0.5 μg), and increasing amounts of CMV-WRN or CMV-BLM expression constructs (0.25, 0.5, 1.0 μg). Following transfection, the cells were lysed by repeated freeze-thawing and luciferase assays were performed using equivalent amounts of total cellular proteins.
# Next, an assay was performed to determine whether WRN-associated helicase activity is required for WRN-mediated trans-activation from the HIV-1 LTR. HeLa cells were co-transfected as in A with the HIV-1 LTR-luciferase reporter plasmid (0.5 μg), RSV-HIV-1 Tat (0.5 μg), or increasing amounts of CMV-WRN and CMV-WRNK577M (a trans-dominant negative helicase-defective mutant) (0.25, 0.5, 1.0 μg) in the absence of HIV-1 Tat expression. Results shown in FIG. 3B are averages from duplicate assays and error bars representing standard deviations between samples are provided.
# [7] = tested on: HIV-1 LTR; test: HIV-1 LTR-luciferase / tk-renilla normalized reporter assay in immortalized WRN^-I- fibroblasts; conditions: highest concentration of RSV-HIV-1 Tat
# Experimental: In order to determine whether the WRN helicase is an essential cofactor for HIV-1 transcription and virus replication, basal and Tat-activated LTR-driven transcription were measured in WRN^-I-fibroblasts. These fibroblasts were obtained from Werner's syndrome patients and lack a functional WRN helicase protein (Moser M J et al., Nucleic Acids Res. 28:648-654).
# as §1, with “Samples were normalized to yield approximately equivalent renilla-luciferase expression to control for transfection efficiencies and any differences in overall transcription levels between WRN^-I- fibroblasts and HeLa cells. Normalized extracts were then compared to determine basal-level and Tat-activated HIV-1 LTR-luciferase transcription.” left out
# [8] = tested on: HIV-1 LTR^ΔNFκB/ΔTAR; test: HIV-1 LTR^ΔNFκB/ΔTAR-luciferase double-mutant reporter assay in HeLa cells
# From the text: HeLa cells were co-transfected as in A with a double-mutant, HIV-1 LTR^ΔNFκB/ΔTAR-luciferase reporter plasmid, deleted for κB-responsive elements and TAR-RNA sequences, RSV-HIV-1 Tat, CMV-WRN, or CMV-BLM.
# [9] = co-expression with Tat, increasing amounts
# [10] = highest concentration of RSV-HIV-1 Tat
Molecule,Tat-activated HIV-1 LTR luciferase activity with or without WRNK577M [1],intracellular p24^Gag (immunofluorescence) [2],intracellular production of p24^Gag capsid protein / HIV-1 replication (immunoblot) [4],transcription from the HIV-1 LTR^ΔκB-luciferase construct (in words) [5],effect on basal HIV-1 LTR transcriptional activity (in words) [6],transcriptional activation of reporter deleted for κB-responsive elements and TAR-RNA [8],also measured
WRNK577M,"5,457,345 RLUs",markedly reduced levels of p24^Gag,represses production of the p24^Gag major capsid protein,did not significantly promote transcription,represses basal transcription to levels below base-line,,"effect on Tat's transcriptional activation from the HIV-1 LTR (in words) [3, 9]: repressed nearly one-half of Tat's transcriptional activation"
"Tat: HIV-1 viral trans-activator protein, 81-101 amino acid residues, expressed from RSV construct","14,518,374 RLUs",,,,,completely abrogated transcriptional activation,"Tat trans-activation of HIV-1 LTR [1, 10]: 22 fold; Tat-activated HIV-1 LTR luciferase activity [1, 10]: 14,834,412 RLUs; transcriptional activation from the HIV-1 LTR ([3]; Tat alone): approximately 250 fold; Tat trans-activation of HIV-1 LTR [7]: 0 fold; Tat-activated HIV-1 LTR luciferase activity [7]: 340 RLUs; Tat-mediated trans-activation from the HIV-1 LTR^ΔκB-luciferase reporter [5]: 6.5 fold"
"WRN helicase: wild-type Werner's syndrome helicase protein, 1432 amino acid residues, expressed from CMV construct",,increased intracellular p24^Gag,significantly higher intracellular production of the p24^Gag major viral capsid protein,to a level approximately one-half that observed for Tat,transcriptionally activates the HIV-1 LTR in a dose-dependent manner,completely abrogated transcriptional activation,"trans-activation by Tat on co-expression of helicase [3, 9]: approximately 395 fold; Tat-mediated LTR trans-activation on co-expression of helicase ([6]; co-expression with Tat, increasing amounts of construct): ~60 fold; transcriptional activation from the HIV-1 LTR ([6]; wild-type LTR, factor expressed alone): approx. 10 fold"
BLM helicase: BLM DNA-helicase expressed from CMV-BLM construct,,,,no significant influence,does not affect basal HIV-1 LTR transcriptional activity,,effect on Tat-mediated transcriptional activation (in words) ([6]; co-expression with Tat): does not significantly influence Tat-mediated transcriptional activation
B1,,,,,,,effect on WRN-mediated trans-activation from the HIV-1 TAR-RNA ([5]; co-expression with CMV-WRN): inhibited WRN-mediated trans-activation
